Results taken from patent US8637321B2, “Lipidomics approaches for central nervous system disorders” (priority 2005, dated 2014).

Experiments:
[1] = system: patients with schizophrenia; test: Clinical Global Impressions (CGI) Scale psychopathology assessment; type: in vivo, human; conditions: means and standard error; for CGI Affective, Post / CGI Negative, Post / CGI Positive, Post: CGI Scale 1 to 7, higher scores greater severity; for CGI Change, Post: overall global change rating at follow-up (1-2 responders, 3-6 non-responders)
Description: (§1) Fifty male and female patients were recruited in two studies for metabolic profiling (Table VI and Table VII for demographics). Subjects ranged in age from 18 to 60 years and met the following inclusion criteria: a) DSM-IV criteria for schizophrenia, schizophreniform disorder, or schizoaffective disorder; b) newly hospitalized for a psychotic exacerbation in the setting of no antipsychotic treatment for at least 3 weeks prior to admission; and c) provided signed informed consent. Patients with psychoses due to psychoactive substance abuse or an underlying medical condition were excluded. Patients who were receiving treatment for diabetes mellitus or hyperlipidemia were also excluded.
The choice and dose of antipsychotic medication was based on the doctor's judgment. […] The treatment duration was 2-3 weeks. […] The 2-3 week duration permits the study of acute early effects.
Psychopathology was assessed on the Clinical Global Impressions (CGI) Scale at baseline and at the time of follow-up blood draws. Scores for the CGI Scale can range from 1 to 7, with higher scores indicating greater severity of illness (Guy (1975) ECDEU Assessment Manual for Psychopharmacology: Publication ADM 76-338. Washington, D.C.: US Department of Health, Education, and Welfare). An overall global change rating was also made at the time of the follow-up blood draw.

[2] = system: patients with schizophrenia; test: plasma lipid profiling pre- and post-treatment with antipsychotics; type: in vivo, human; on CE18:3n3 I/D: key: I: increase; D: decrease; on CE18:3n6 I/D: key: I: increase; D: decrease; on CE20:3n6 I/D: key: I: increase; D: decrease; on CE20:5n3 I/D: key: I: increase; D: decrease; on FA18:0 I/D: key: I: increase; D: decrease; on FA20:4n6 I/D: key: I: increase; D: decrease; on FA22.1n9 I/D: key: I: increase; D: decrease; on FASAT I/D: key: I: increase; D: decrease; on FCLC I/D: key: I: increase; D: decrease; on LY20:3n6 I/D: key: I: increase; D: decrease; on LY20:3n9 I/D: key: I: increase; D: decrease; on LY20:4n3 I/D: key: I: increase; D: decrease; on LY20:5n3 I/D: key: I: increase; D: decrease; on PC.n9 I/D: key: I: increase; D: decrease; on PC18:0 I/D: key: I: increase; D: decrease; on PC18:1n9 I/D: key: I: increase; D: decrease; on PC20:2n6 I/D: key: I: increase; D: decrease; on PC20:3n6 I/D: key: I: increase; D: decrease; on PC20:3n9 I/D: key: I: increase; D: decrease; on PC20:4n3 I/D: key: I: increase; D: decrease; on PC20:5n3 I/D: key: I: increase; D: decrease; on PC22:0 I/D: key: I: increase; D: decrease; on PC22:4n6 I/D: key: I: increase; D: decrease; on PCLC I/D: key: I: increase; D: decrease; on PE18:3n6 I/D: key: I: increase; D: decrease; on PE20:3n6 I/D: key: I: increase; D: decrease; on PE20:3n9 I/D: key: I: increase; D: decrease; on PE20:5n3 I/D: key: I: increase; D: decrease; on PE22:5n6 I/D: key: I: increase; D: decrease; on PELC I/D: key: I: increase; D: decrease; on SP14:0 I/D: key: I: increase; D: decrease; on SP20:3n6 I/D: key: I: increase; D: decrease; on SPSAT I/D: key: I: increase; D: decrease; on TG14:0 I/D: key: I: increase; D: decrease; on TG18:0 I/D: key: I: increase; D: decrease; on TG20:1n9 I/D: key: I: increase; D: decrease; on TG20:3n6 I/D: key: I: increase; D: decrease; on TG20:4n3 I/D: key: I: increase; D: decrease; on TGLC I/D: key: I: increase; D: decrease
Description: as §1
The choice and dose of antipsychotic medication was based on the doctor's judgment. […] The treatment duration was 2-3 weeks. […] The mean duration of therapy was about 2 weeks for all 3 drugs in Study II. The drug groups were otherwise generally similar in severity of disease and physical characteristics (Table VI and Table VII). The 2-3 week duration permits the study of acute early effects.
All blood samples were drawn from subjects in the early morning after overnight fasting. Blood was drawn into vacutainer tubes containing sodium heparin, immediately placed on ice, and within 10 minutes, the blood was centrifuged and the plasma was transferred into polypropylene tubes and stored in a −30° C. freezer. All baseline samples were drawn prior to starting antipsychotic treatment in the study. If a patient had received a dose of an antipsychotic during the referral process (e.g., because of agitation when initially seen in a local emergency department), drawing of baseline plasma samples was delayed for 2-3 days. Follow-up samples were drawn after patients had received an average of 2-3 weeks of acute antipsychotic treatment.
A comprehensive assessment of plasma lipid profiles was performed (Lipomics Technologies, West Sacramento, Calif.) according to established methods (Watkins, et al. (2002) J. Lipid Res. 43(11):1809-17). Quantitative measurements of fatty acids in various lipid classes were determined as nmol fatty acid/gram of plasma. Lipid classes included cholesterol esters (CE), free cholesterol (FC), triacylglycerols (TG), diacylglycerols (DG), free fatty acids (FA), lysophosphatidylcholine (LY), phosphatidylcholine (PC), and phosphatidylethanolamine (PE). Lipid metabolites are identified by the lipid class and the fatty acid moiety. In the context of this invention, fatty acids are identified first by the number of carbons in the molecule (e.g., 20), the number of double bonds in the molecule (e.g., 4), and lastly the position of the double bonds (e.g., n6). To illustrate, PC20:4n6 denotes a phosphatidylcholine molecule containing a 20 carbon fatty acid with 4 double bonds at the n6 position.
Significant differences between pre- and post-drug treatment were assessed by paired t-tests. Evaluation of response to drug was assessed by two-way ANOVA. All statistics were done using R with the following functions: t.test, anova, prcomp, and g/m (Team RDC (2005) R: A language and environment for statistical computing. R Foundation for Statistical Computing). Before beginning statistical analyses, change detection was used to determine if observed signals were greater than that which could be expected by chance (noise). The chance distribution of p-values was determined by permuting the outcome groupings (Golub, et al. (1999) Science 286(5439):531-7). Briefly, P values for the appropriate comparison were calculated for each metabolite using a Student's t-test. The metabolites were ranked by p value from smallest to largest. The log of the rank versus the log of the p value for each comparison of interest was plotted and is represented by a colored line. The distribution of p values expected by chance at each rank is indicated by the shaded area. […]

[3] = cited from earlier work; for risk of DM / metabolic effect: patients with schizophrenia; for weight gain, mean increases during the first year of therapy: prospective data; for effect on serum lipids / effects on serum glucose: in vivo
[4] = Study I, after 2-3 weeks treatment
[5] = Study II, about 2 weeks treatment
[6] = plasma, mole percentage data, post treatment compared with pretreatment
[7] = plasma, total lipid class data (nmol/g sample), post treatment compared with pretreatment
[8] = Study I, plasma, post-treatment vs pre-treatment
[9] = Study II, plasma, post vs pre-treatment

## Cc1cc2c(s1)Nc1ccccc1N=C2N1CCN(C)CC1 [Olanzapine, olanzapine]
[1]; [4]
  CGI Affective, Post: 1.5 ± 0.2
  CGI Negative, Post: 2.2 ± 0.3
  CGI Positive, Post: 2.9 ± 0.2
[1]; Study I
  CGI Change, Post: 2.8 ± 0.2
[1]; [5]
  CGI Affective, Post: 1.2 ± 0.2
  CGI Negative, Post: 1 ± 0
  CGI Positive, Post: 2.4 ± 0.2
[1]; Study II
  CGI Change, Post: 3 ± 0.3
[2]; [6]
  CE18:3n3 I/D: I
  CE18:3n6 I/D: I
  CE20:3n6 I/D: I
  CE20:5n3 I/D: I
  FA18:0 I/D: I
  FA20:4n6 I/D: I
  FA22.1n9 I/D: I
  FASAT I/D: I
  LY20:3n6 I/D: I
  LY20:3n9 I/D: I
  LY20:4n3 I/D: I
  LY20:5n3 I/D: I
  PC18:0 I/D: I
  PC18:1n9 I/D: I
  PC20:2n6 I/D: I
  PC20:3n6 I/D: I
  PC20:3n9 I/D: I
  PC20:4n3 I/D: I
  PC20:5n3 I/D: I
  PC22:0 I/D: I
  PC22:4n6 I/D: I
  PC.n9 I/D: I
  PE18:3n6 I/D: I
  PE20:3n6 I/D: I
  PE20:3n9 I/D: I
  PE20:5n3 I/D: I
  PE22:5n6 I/D: I
  SP14:0 I/D: I
  SP20:3n6 I/D: I
  SPSAT I/D: I
  TG14:0 I/D: I
  TG20:1n9 I/D: I
  TG20:3n6 I/D: I
  TG20:4n3 I/D: I
[2]; [7]
  FCLC I/D: I
  PCLC I/D: I
  PELC I/D: I
  TGLC I/D: I
[3]
  risk of DM / metabolic effect: higher risk
  weight gain, mean increases during the first year of therapy: 15.0-26.0 lbs

## OCCOCCN1CCN(C2=Nc3ccccc3Sc3ccccc32)CC1 [quetiapine]
[3]
  effect on serum lipids: discrepant data
  weight gain, mean increases during the first year of therapy: 6.1-12.3 lbs

## O=C1CCc2ccc(OCCCCN3CCN(c4cccc(Cl)c4Cl)CC3)cc2N1 [Aripiprazole, aripiprazole]
[1]; [4]
  CGI Affective, Post: 1.5 ± 0.3
  CGI Negative, Post: 1.3 ± 0.3
  CGI Positive, Post: 2.5 ± 0.3
[1]; Study I
  CGI Change, Post: 2.5 ± 0.3
[1]; [5]
  CGI Affective, Post: 1.4 ± 0.2
  CGI Negative, Post: 1.6 ± 0.3
  CGI Positive, Post: 2.5 ± 0.2
[1]; Study II
  CGI Change, Post: 2.8 ± 0.2
[2]; [8]
  PE class concentration: increased
  fatty acid concentrations: very little change
  lipid changes overall: Minimal significant lipid changes
  n7 and n9 free fatty acids: no change
  total lipid classes other than PE: no other total lipid class changes
[2]; Study II (replication set), plasma, post vs pre-treatment
  lipid changes overall: minimal lipid changes
[2]; [9]
  fatty acid concentrations: very little change
  other lipid classes (than PE): No significant changes
[2]; Study II, plasma, post-treatment vs pre-treatment
  PE concentration: increased
[2]; patients after treatment
  plasma fatty acid compositions: affected minimally
[2]; [6]
  CE18:0 I/D: I
  LY22.5n3 I/D: I
  PC22:5n6 I/D: I
  SP14:1n5 I/D: I
  SP18:3n3 I/D: I
  SPSAT I/D: I
  TG18:0 I/D: I
  TG22:2n6 I/D: I
[2]; [7]
  PELC I/D: I
[3]
  effect on serum lipids: lipid-neutral
  effects on serum glucose: minimal effects

## O=C1Cc2cc(CCN3CCN(c4nsc5ccccc45)CC3)c(Cl)cc2N1 [ziprasidone]
[3]
  effect on serum lipids: lipid-neutral
  effects on serum glucose: minimal effects

## O=C(CCCN1CCC(O)(c2ccc(Cl)cc2)CC1)c1ccc(F)cc1 [haloperidol]
[3]
  risk of DM / metabolic effect: metabolically neutral

## CN1CCN(C2=Nc3cc(Cl)ccc3Nc3ccccc32)CC1 [clozapine]
[3]
  risk of DM / metabolic effect: higher risk
